According to patent publication US20220016215A1, “GIP RECEPTOR AGONIST PEPTIDE COMPOUNDS AND USES THEREOF” (TAKEDA PHAARMACEUTICAL COMPANY LIMITED, priority 2018, published 2022):
Marks after values point to notes of the source that are not given here.

Tests used:
[1] = target: T1, human GIPR (Homo sapiens, UniProt P48546); experiment: Agonist activity on human GIPR, CRE-luciferase reporter assay (increase in intracellular cAMP as indicator); assay type: cell-based; conditions: for Selectivity Ratio (B/A): GLP1R EC50 / GIPR EC50
T1 construct: expressed in transfected cells
T1 sequence (P48546 22-466): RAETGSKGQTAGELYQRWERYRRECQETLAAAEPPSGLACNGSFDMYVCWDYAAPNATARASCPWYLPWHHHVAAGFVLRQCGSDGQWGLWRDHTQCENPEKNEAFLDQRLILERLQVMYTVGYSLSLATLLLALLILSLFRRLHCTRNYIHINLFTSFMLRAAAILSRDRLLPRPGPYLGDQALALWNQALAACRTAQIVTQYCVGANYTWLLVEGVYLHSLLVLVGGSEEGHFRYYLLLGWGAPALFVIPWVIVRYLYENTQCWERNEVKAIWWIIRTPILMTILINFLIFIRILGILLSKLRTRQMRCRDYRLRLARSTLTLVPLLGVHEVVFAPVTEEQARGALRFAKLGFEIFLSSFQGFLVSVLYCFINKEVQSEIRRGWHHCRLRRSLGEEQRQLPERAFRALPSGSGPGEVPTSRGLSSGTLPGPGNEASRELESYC
Source text: The human GIPR gene having an identical sequence to Genebank Accession No. U39231 is cloned into a pMSRα-neo vector to prepare hGIPR/pMSRα-neo.
(2) Construction of Reporter Plasmid Expressing Cell
Luciferase reporter gene with a cAMP-responsive sequence located upstream is transferred to a CHO-K1 cell to construct a CRE-LUC/CHO-K1 cell.
(4) Transfer of Human GIPR Gene to CRE-LUC/CHO-K1 Cell and Obtaining of Expressing Cell
The plasmid hGIPR/pMSRα-neo obtained in (1) is transferred to the CRE-LUC/CHO-K1 cell obtained in (2) to obtain a transformant. Subsequently, the cell line inducing the luciferase expression, hGIPR/CRE-LUC/CHO-K1 cell, is selected from the obtained transformant by adding GIP.
25 μL each of the hGIPR/CRE-LUC/CHO-K1 cell is inoculated in a 384-well white plate (Corning) in such a way as to provide 5×10^3 cells/well and may be cultured in a HamF12 medium containing 10% fetal bovine serum, 100 U/mL penicillin, and 100 μg/mL streptomycin in a CO2 incubator at 37° C. overnight. 5 μL of a medium containing a test compound is added to the cells and incubated for 4 hours at the indicated concentration in a CO2 incubator at 37° C. Steady-Glo (Promega) is added in amounts of 30 μL and shaken under light shielding. Twenty minutes later, luciferase activity is measured using a plate reader Envision (PerkinElmer). The GIPR agonist activity is calculated with increase in intracellular cAMP concentration as the indicator when the luciferase activity in the presence of 10 nM of GIP was 100% and the luciferase activity in the case of adding DMSO instead of the test compound was 0%.

[2] = test system: morphine (0.6 mg/kg, s.c.)-induced emesis in ferrets; experiment: Morphine-induced acute emetic model in male ferrets; assay type: in vivo, ferret
Protocol: Example 6—In-Vivo Effect of GIP Receptor Agonist Peptides on Emesis in Morphine Induced Emesis Model in Live Male Ferrets
Effect of subcutaneously administered GIP receptor agonist peptide in morphine-induced acute emetic model.
To evaluate the antiemetic effect, the GIP receptor agonist peptides other than natural human GIP were subcutaneously administered into male ferrets 30 minutes before morphine administration. […]. Up to 60 minutes after morphine administration, the condition of the ferrets was monitored to record the frequencies and time points of abdominal contraction motions, vomiting behaviors, licking with the tongue, and fidgety behavior occurring
Effects of Subcutaneously Administered GIP Receptor Agonist Peptides in Morphine-Induced Acute Emetic Model
30 nmol/kg of Compounds 3 and 5 were dissolved with a vehicle (0.09 w/v % tween 80/10% DMSO/saline), respectively, to prepare test solutions. […] of the test solutions and the vehicle were subcutaneously administered to ferrets (4 in each group), respectively. At the time of each of 4 hours, after administration, 0.6 mg/kg of morphine was subcutaneously administered. […] See results in Tables 6, 7 and 8.
(§1) 10 nmol/kg of each compound dissolved with a vehicle (0.09 w/v % tween 80/10% DMSO/saline) respectively, to prepare test solutions. […] of the test solutions and the vehicle were subcutaneously administered to ferrets (4 in each group), respectively. At the time of each of 4 hours, or 120 hours after administration, 0.6 mg/kg of morphine was subcutaneously administered. Up to 360 minutes after morphine administration, the condition of the ferrets was monitored to record the frequencies and time points of abdominal contraction motions, vomiting behaviors, licking with the tongue, and fidgety behavior occurring.
as §1, with “30 nmol/kg” for “10 nmol/kg”, “80/10% DMSO/saline),respectively,” for “80/10% DMSO/saline) respectively,”

[3] = ferrets, morphine 0.6 mg/kg s.c. 0.5 h after drug, 106-[…] s.c. (30 nmol/kg)
[4] = ferrets, morphine 0.6 mg/kg s.c. 0.5 h after drug, 106-[…] s.c. (30 nmol/kg), non-responders counted as 30 min

What does the source list for `CC[C@H](C)[C@H](NC(=O)[C@H](CO)NC(=O)[C@H](Cc1ccc(O)cc1)NC(=O)[C@H](CC(=O)O)NC(=O)[C@H](CO)NC(=O)[C@@H](NC(=O)[C@H](Cc1ccccc1)NC(=O)[C@@H](NC(=O)CNC(=O)[C@H](CCC(=O)O)NC(=O)[C@H](C)NC(=O)[C@H](Cc1ccc(O)cc1)NC(C)=O)[C@@H](C)O)[C@@H](C)CC)C(=O)N[C@@H](C)C(=O)N[C@@H](CCSC)C(=O)N[C@@H](CC(=O)O)C(=O)N[C@@H](CCCCN)C(=O)N[C@H](C(=O)N[C@@H](Cc1c[nH]cn1)C(=O)N[C@@H](CCC(N)=O)C(=O)N[C@@H](CCC(N)=O)C(=O)N[C@@H](CC(=O)O)C(=O)N[C@@H](Cc1ccccc1)C(=O)N[C@H](C(=O)N[C@@H](CC(N)=O)C(=O)N[C@@H](Cc1c[nH]c2ccccc12)C(=O)N[C@@H](CC(C)C)C(=O)N[C@@H](CC(C)C)C(=O)N[C@@H](C)C(=O)N[C@@H](CCC(N)=O)C(=O)N[C@@H](CCCCN)C(=O)NCC(=O)N[C@@H](CCCCN)C(=O)N[C@@H](CCCCN)C(=O)N[C@@H](CC(N)=O)C(=O)N[C@@H](CC(=O)O)C(=O)N[C@@H](Cc1c[nH]c2ccccc12)C(=O)N[C@@H](CCCCN)C(=O)N[C@@H](Cc1c[nH]cn1)C(=O)N[C@@H](CC(N)=O)C(=O)N[C@H](C(=O)N[C@H](C(=O)N[C@@H](CCC(N)=O)C(=O)O)[C@@H](C)CC)[C@@H](C)CC)C(C)C)[C@@H](C)CC` [Compound 1]?
Selectivity Ratio (B/A) [1]: 30,200; Emesis: Duration [2, 3]: 0.0 ± 0.0 min; Emesis: Frequency [2, 3]: 0.0 ± 0.0; Emesis: No. of animals (responder/used) [2, 3]: 0/4 #; Fidget: Duration [2, 3]: 0.0 ± 0.0 min; Fidget: Frequency [2, 3]: 0.0 ± 0.0; Fidget: No. of animals (responder/used) [2, 3]: 0/4; Licking: Duration [2, 3]: 0.0 ± 0.0 min; Licking: Frequency [2, 3]: 0.0 ± 0.0; Licking: No. of animals (responder/used) [2, 3]: 0/4 #; Retching: Duration [2, 3]: 0.0 ± 0.0 min; Retching: Frequency [2, 3]: 0.0 ± 0.0; Retching: No. of animals (responder/used) [2, 3]: 0/4 #; Vomiting: Duration [2, 3]: 0.0 ± 0.0 min; Vomiting: Frequency [2, 3]: 0.0 ± 0.0; Vomiting: No. of animals (responder/used) [2, 3]: 0/4; Emesis: Latency [2, 4]: 30.0 ± 0.0 min; Fidget: Latency [2, 4]: 30.0 ± 0.0 min; Licking: Latency [2, 4]: 30.0 ± 0.0 min; Retching: Latency [2, 4]: 30.0 ± 0.0 min; Vomiting: Latency [2, 4]: 30.0 ± 0.0 min; Attenuation of morphine-induced emesis (in words) ([2]; male ferrets, 30 nmol/kg s.c. 30 minutes before morphine 0.6 mg/kg s.c.): completely attenuated; Comment: Anti-Emetic Activity (inhibition) on morphine-induced emesis ([2]; male ferrets, summary of the morphine experiments): 100% inhibition

`CC[C@H](C)[C@H](NC(=O)[C@H](CO)NC(=O)[C@H](Cc1ccc(O)cc1)NC(=O)[C@H](CC(=O)O)NC(=O)[C@H](CO)NC(=O)[C@@H](NC(=O)[C@H](Cc1ccccc1)NC(=O)[C@@H](NC(=O)CNC(=O)[C@H](CCC(=O)O)NC(=O)[C@@H](C)NC(=O)[C@@H](N)Cc1ccc(O)cc1)[C@@H](C)O)[C@@H](C)CC)C(=O)N[C@@H](C)C(=O)N[C@@H](CCSC)C(=O)N[C@@H](CC(=O)O)C(=O)N[C@@H](CCCCN)C(=O)N[C@H](C(=O)N[C@@H](Cc1c[nH]cn1)C(=O)N[C@@H](CCC(N)=O)C(=O)N[C@@H](CCC(N)=O)C(=O)N[C@@H](CC(=O)O)C(=O)N[C@@H](Cc1ccccc1)C(=O)N[C@H](C(=O)N[C@@H](CC(N)=O)C(=O)N[C@@H](Cc1c[nH]c2ccccc12)C(=O)N[C@@H](CC(C)C)C(=O)N[C@@H](CC(C)C)C(=O)N[C@@H](C)C(=O)N[C@@H](CCC(N)=O)C(=O)N[C@@H](CCCCN)C(=O)NCC(=O)N[C@@H](CCCCN)C(=O)N[C@@H](CCCCN)C(=O)N[C@@H](CC(N)=O)C(=O)N[C@@H](CC(=O)O)C(=O)N[C@@H](Cc1c[nH]c2ccccc12)C(=O)N[C@@H](CCCCN)C(=O)N[C@@H](Cc1c[nH]cn1)C(=O)N[C@@H](CC(N)=O)C(=O)N[C@H](C(=O)N[C@H](C(=O)N[C@@H](CCC(N)=O)C(N)=O)[C@@H](C)CC)[C@@H](C)CC)C(C)C)[C@@H](C)CC` [Compound 14] was tested. Which “Selectivity Ratio (B/A)” value [1] did it give?
The value was >100,000.

What about the EC50 ([1]; hGIPR/CRE-LUC/CHO-K1 cells, 4 h incubation, read-out: GIPR EC50 nM (A)) of the same compound?
Its EC50 is 0.001 nM.

For “YAibEGTFISDYS(Lys-(ethylene glycol)2-C15 diacid)ALDKIHQQDFVNWLLAQRG-OH [Compound 32]”, which “Selectivity Ratio (B/A)” value [1] is on record?
Its value is 83090.

For “YAibEGTFISDYSIALDKIHQQ(Lys-(ethylene glycol)2-C15 diacid)FVNWLLAQR-NH2 [Compound 28]”, which “Selectivity Ratio (B/A)” value [1] is on record?
The value was >100,000.

Which “Selectivity Ratio (B/A)” value [1] does the source give for “YAibEGTFISDYSIALDKIHQQ(Lys-(ethylene glycol)2-C15 diacid)FVNWLLAQRG-OH [Compound 24]” here?
The value was 82783.

Which “Selectivity Ratio (B/A)” value [1] does the source give for “YAibEGTFISDYSIALDKIHQQ(Lys-(ethylene glycol)2-C15 diacid)FVNWLLAQRPSSGAPPPS-NH2 [Compound 29]” here?
Its value is >100,000.

For “YAibEGTFISDYSIALDKIHQQDFVNWLLAQ(Lys-(ethylene glycol)2-C15 diacid)G-OH [Compound 31]”, which “Selectivity Ratio (B/A)” value [1] is on record?
Its value is 83090.

Which “Selectivity Ratio (B/A)” value [1] does the source give for “YAibEGTFISDYSIELEK(Lys-(ethylene glycol)2-C15 diacid)AQRAFVEWLLAQGPSSGAPPPS-NH2 [Compound 23]” here?
Its value is 3364.

With “YD-AlaEGTFISDYSIAMD(Lys-(OEG-gGlu)2-Oda)IHQQDFVNWLLAQKGKICNDWKHNIIQ-NH2 [Compound 13]” as the compound, how does the “Selectivity Ratio (B/A)” value [1] read?
Its value is 21,369.
